Test results as given in the supplement of paper PMC10307832.

What was measured:
Assay in all cases: relative viability (nuclei count vs DMSO), 5 days (fraction); higher = more cells survive
EHT 1864 + OSI-027 = compound: C1COCCN1CC2=CC(=O)C(=CO2)OCCCCCSC3=C4C=CC(=CC4=NC=C3)C(F)(F)F [EHT 1864] + COc1cccc2cc(-c3nc([C@H]4CC[C@H](C(=O)O)CC4)n4ncnc(N)c34)[nH]c12 [OSI-027] (partner 0.5 µM)
Summary of the method: (§1)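 Relative viability is defined as nuclei in treated wells over nuclei in vehicle wells. Duplicate plates were run and medians reported. Lung cancer cell lines in 1536-well plates were dosed by pin tool one day after seeding, with one drug or with a fixed anchor-drug dose plus five library-drug doses (not always all listed) in √10 steps, and nuclei were counted after 5 days.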

EHT 1864 + Trametinib = compound: C1COCCN1CC2=CC(=O)C(=CO2)OCCCCCSC3=C4C=CC(=CC4=NC=C3)C(F)(F)F [EHT 1864] + CC(=O)Nc1cccc(-n2c(=O)n(C3CC3)c(=O)c3c(Nc4ccc(I)cc4F)n(C)c(=O)c(C)c32)c1 [Trametinib] (partner 0.02 µM)
Summary of the method: as §1

EHT 1864 + Phenformin = compound: C1COCCN1CC2=CC(=O)C(=CO2)OCCCCCSC3=C4C=CC(=CC4=NC=C3)C(F)(F)F [EHT 1864] + N=C(N)NC(=N)NCCc1ccccc1 [Phenformin] (partner 250 µM)
Summary of the method: as §1

EHT 1864 + Crizotinib = compound: C1COCCN1CC2=CC(=O)C(=CO2)OCCCCCSC3=C4C=CC(=CC4=NC=C3)C(F)(F)F [EHT 1864] + C[C@@H](Oc1cc(-c2cnn(C3CCNCC3)c2)cnc1N)c1c(Cl)ccc(F)c1Cl [Crizotinib] (partner 1 µM)
Summary of the method: as §1

| Cell Line | relative viability (EHT 1864 + OSI-027; first compound 0.04 µM) | relative viability (EHT 1864 + OSI-027; first compound 0.1265 µM) | relative viability (EHT 1864 + OSI-027; first compound 0.4 µM) | relative viability (EHT 1864 + OSI-027; first compound 1.265 µM) | relative viability (EHT 1864 + OSI-027; first compound 4 µM) | relative viability (EHT 1864 + Trametinib; first compound 0.04 µM) | relative viability (EHT 1864 + Trametinib; first compound 0.1265 µM) | relative viability (EHT 1864 + Trametinib; first compound 0.4 µM) | relative viability (EHT 1864 + Trametinib; first compound 1.265 µM) | relative viability (EHT 1864 + Trametinib; first compound 4 µM) | relative viability (EHT 1864 + Phenformin; first compound 0.04 µM) | relative viability (EHT 1864 + Phenformin; first compound 0.1265 µM) | relative viability (EHT 1864 + Phenformin; first compound 0.4 µM) | relative viability (EHT 1864 + Phenformin; first compound 1.265 µM) | relative viability (EHT 1864 + Phenformin; first compound 4 µM) | relative viability (EHT 1864 + Crizotinib; first compound 0.04 µM) | relative viability (EHT 1864 + Crizotinib; first compound 0.1265 µM) | relative viability (EHT 1864 + Crizotinib; first compound 0.4 µM) | relative viability (EHT 1864 + Crizotinib; first compound 1.265 µM) | relative viability (EHT 1864 + Crizotinib; first compound 4 µM) |
| --- | --- | --- | --- | --- | --- | --- | --- | --- | --- | --- | --- | --- | --- | --- | --- | --- | --- | --- | --- | --- |
| PC-3 [JPC-3] | 0.743 | 0.575 | 0.742 | 0.732 | 0.646 | 0.641 | 0.649 | 0.763 | 0.727 | 0.695 | 0.507 | 0.439 | 0.451 | 0.478 | 0.51 | 0.973 | 0.979 | 0.925 | 0.909 | 1.01 |
| PC-14 | 0.813 | 0.75 | 0.814 | 1.05 | 0.88 | 0.741 | 0.672 | 0.796 | 0.68 | 0.88 | 0.652 | – | 0.615 | 0.594 | 0.513 | 0.966 | 0.962 | 0.832 | 0.865 | 0.899 |
| RERF-LC-KJ | 0.621 | 0.539 | 0.52 | 0.575 | 0.541 | 0.896 | 0.868 | 0.866 | 0.826 | 0.832 | 0.381 | 0.428 | 0.453 | 0.393 | 0.404 | 0.794 | 0.816 | 0.769 | 0.784 | 0.787 |
| SK-LU-1 | 0.357 | 0.262 | 0.32 | 0.33 | 0.312 | 0.594 | 0.516 | 0.477 | 0.378 | 0.464 | 0.538 | 0.36 | 0.52 | 0.575 | 0.587 | 0.982 | 0.865 | 0.927 | 0.911 | 0.737 |
| SK-MES-1 | 0.628 | 0.542 | 0.572 | 0.592 | 0.562 | 0.539 | 0.498 | 0.518 | 0.537 | 0.518 | 0.726 | 0.67 | 0.605 | 0.577 | 0.602 | 1 | 0.972 | 1.04 | 0.968 | 0.996 |
| SW 1573 | 0.592 | 0.54 | 0.605 | 0.482 | 0.55 | 0.622 | – | 0.437 | 0.398 | 0.444 | 0.436 | 0.34 | 0.347 | 0.334 | 0.382 | 0.827 | 0.74 | 0.803 | 0.813 | 0.856 |
| UMC-11 | 0.463 | 0.366 | – | 0.483 | 0.47 | 0.727 | 0.496 | 0.692 | 0.74 | 0.967 | 0.356 | 0.275 | – | 0.324 | 0.31 | 0.611 | 0.537 | 0.568 | 0.607 | 0.507 |
